Results reported in ChEMBL document CHEMBL3885861, “Open TG-GATES”.

Organism: Rattus norvegicus
Assay: Open TG-GATES - Regimen: Single
Format: toxicity, organism-based, Sprague-Dawley
Design: regimen Single, gender Male, age 6 weeks
Details: in vivo, po, route gavage; for Hb / Ht / Lym / MCH / MCHC / MCV / Mono / Neu / PT / Plat / RBC / Ret / WBC / APTT / Bas / Eos / Fbg: tissue Blood; for KIDNEY_L / KIDNEY_R / KIDNEY_TOTAL: tissue Kidney; for LIVER: tissue Liver; for ALP / ALT / AST / BUN / CRE / Ca / Cl / DBIL / GLC / IP / K / LDH / Na / PL / RALB / TBIL / TC / TP / gamma-GTP: tissue Plasma
[1] = 50 mg/kg, 6 h, dose level Middle
[2] = 50 mg/kg, 9 h, dose level Middle
[3] = 50 mg/kg, 24 h, dose level Middle
[4] = 150 mg/kg, 3 h, dose level High
[5] = 150 mg/kg, 6 h, dose level High
[6] = 150 mg/kg, 9 h, dose level High
[7] = 150 mg/kg, 24 h, dose level High

O=P1(N(CCCl)CCCl)NCCCO1 (configuration not stated) [CYCLOPHOSPHAMIDE ANHYDROUS]
Hb [1]: 12.8 g/dL | Ht [1]: 37.8% | Lym [1]: 73.2% | MCH [1]: 21.1 pg | MCHC [1]: 33.7% | MCV [1]: 62.7 fL | Mono [1]: 2.6% | Neu [1]: 22.8% | PT [1]: 14.2 s | Plat [1]: 115.3 x10_4/uL | RBC [1]: 603.6 x10_4/ul | Ret [1]: 8.9% | WBC [1]: 84.9 x10_2/uL | KIDNEY_L [1]: 0.9 g | KIDNEY_R [1]: 0.8 g | KIDNEY_TOTAL [1]: 1.7 g | LIVER [1]: 7.5 g | ALP [1]: 1677 IU/L | ALT [1]: 35 IU/L | AST [1]: 72.8 IU/L | BUN [1]: 9.6 mg/dL | CRE [1]: 0.2 mg/dL | Ca [1]: 10.9 mg/dL | Cl [1]: 106.2 meq/L | DBIL [1]: 0.016 mg/dL | GLC [1]: 171.6 mg/dL | IP [1]: 9.9 mg/dL | K [1]: 4.4 meq/L | LDH [1]: 65 IU/L | Na [1]: 141.4 meq/L | PL [1]: 134 mg/dL | RALB [1]: 2.5 g/dL | TBIL [1]: 0.064 mg/dL | TC [1]: 72.2 mg/dL | TP [1]: 5.4 g/dL | gamma-GTP [1]: 1.4 IU/L | TERMINAL_BW [2]: 187.4 g | APTT [2]: 17.8 s | Bas [2]: 0% | Eos [2]: 1% | Fbg [2]: 284.8 mg/dL | Hb [2]: 12.7 g/dL | Ht [2]: 37.5% | Lym [2]: 76% | MCH [2]: 20.9 pg | MCHC [2]: 33.8% | MCV [2]: 61.8 fL | Mono [2]: 2% | Neu [2]: 21% | PT [2]: 14.1 s | Plat [2]: 112.4 x10_4/uL | RBC [2]: 606.8 x10_4/ul | Ret [2]: 9.1% | WBC [2]: 56.3 x10_2/uL | KIDNEY_L [2]: 0.8 g | KIDNEY_R [2]: 0.8 g | KIDNEY_TOTAL [2]: 1.7 g | LIVER [2]: 7.1 g | ALP [2]: 1578.4 IU/L | ALT [2]: 28.4 IU/L | AST [2]: 67.4 IU/L | BUN [2]: 9.6 mg/dL | CRE [2]: 0.2 mg/dL | Ca [2]: 10.6 mg/dL | Cl [2]: 106.8 meq/L | DBIL [2]: 0.016 mg/dL | GLC [2]: 177.2 mg/dL | IP [2]: 10.7 mg/dL | K [2]: 4.1 meq/L | LDH [2]: 55.4 IU/L | Na [2]: 142.8 meq/L | PL [2]: 125.4 mg/dL | RALB [2]: 2.5 g/dL | TBIL [2]: 0.066 mg/dL | TC [2]: 73.8 mg/dL | TP [2]: 5.3 g/dL | gamma-GTP [2]: 1.6 IU/L | TERMINAL_BW [3]: 200.3 g | APTT [3]: 24.4 s | Bas [3]: 0% | Eos [3]: 1% | Fbg [3]: 285.8 mg/dL | Hb [3]: 13 g/dL | Ht [3]: 38.7% | Lym [3]: 80.8% | MCH [3]: 20.8 pg | MCHC [3]: 33.5% | MCV [3]: 62 fL | Mono [3]: 2.4% | Neu [3]: 15.4% | PT [3]: 14.5 s | Plat [3]: 114 x10_4/uL | RBC [3]: 624.4 x10_4/ul | Ret [3]: 5.5% | WBC [3]: 30.3 x10_2/uL | KIDNEY_L [3]: 0.9 g | KIDNEY_R [3]: 0.9 g | KIDNEY_TOTAL [3]: 1.8 g | LIVER [3]: 8.4 g | ALP [3]: 1583 IU/L | ALT [3]: 36.8 IU/L | AST [3]: 68.8 IU/L | BUN [3]: 14 mg/dL | CRE [3]: 0.2 mg/dL | Ca [3]: 11 mg/dL | Cl [3]: 106 meq/L | DBIL [3]: 0.026 mg/dL | GLC [3]: 176.4 mg/dL | IP [3]: 8.3 mg/dL | K [3]: 4.4 meq/L | LDH [3]: 101.8 IU/L | Na [3]: 140.4 meq/L | PL [3]: 143.2 mg/dL | RALB [3]: 2.5 g/dL | TBIL [3]: 0.066 mg/dL | TC [3]: 79.4 mg/dL | TP [3]: 5.4 g/dL | gamma-GTP [3]: 1 IU/L | TERMINAL_BW [4]: 193.2 g | APTT [4]: 16.8 s | Bas [4]: 0% | Eos [4]: 0.8% | Fbg [4]: 274.6 mg/dL | Hb [4]: 12.8 g/dL | Ht [4]: 38.2% | Lym [4]: 77.6% | MCH [4]: 21.2 pg | MCHC [4]: 33.3% | MCV [4]: 63.5 fL | Mono [4]: 2.8% | Neu [4]: 18% | PT [4]: 14 s | Plat [4]: 118.8 x10_4/uL | RBC [4]: 602 x10_4/ul | Ret [4]: 9.4% | WBC [4]: 95.6 x10_2/uL | KIDNEY_L [4]: 0.9 g | KIDNEY_R [4]: 0.9 g | KIDNEY_TOTAL [4]: 1.7 g | LIVER [4]: 8 g | ALP [4]: 1465.2 IU/L | ALT [4]: 33.2 IU/L | AST [4]: 72 IU/L | BUN [4]: 11.2 mg/dL | CRE [4]: 0.2 mg/dL | Ca [4]: 10.9 mg/dL | Cl [4]: 105.2 meq/L | DBIL [4]: 0.018 mg/dL | GLC [4]: 176 mg/dL | IP [4]: 8.6 mg/dL | K [4]: 4.1 meq/L | LDH [4]: 75.6 IU/L | Na [4]: 140 meq/L | PL [4]: 136.8 mg/dL | RALB [4]: 2.5 g/dL | TBIL [4]: 0.064 mg/dL | TC [4]: 71 mg/dL | TP [4]: 5.3 g/dL | gamma-GTP [4]: 1 IU/L | TERMINAL_BW [5]: 185.5 g | APTT [5]: 17.1 s | Bas [5]: 0% | Eos [5]: 1% | Fbg [5]: 284.8 mg/dL | Hb [5]: 13.2 g/dL | Ht [5]: 39.4% | Lym [5]: 71.4% | MCH [5]: 20.6 pg | MCHC [5]: 33.6% | MCV [5]: 61.3 fL | Mono [5]: 2.4% | Neu [5]: 25% | PT [5]: 14.2 s | Plat [5]: 119.4 x10_4/uL | RBC [5]: 643 x10_4/ul | Ret [5]: 9% | WBC [5]: 86.7 x10_2/uL | KIDNEY_L [5]: 0.8 g | KIDNEY_R [5]: 0.8 g | KIDNEY_TOTAL [5]: 1.7 g | LIVER [5]: 6.9 g | ALP [5]: 1365.8 IU/L | ALT [5]: 34.8 IU/L | AST [5]: 76.8 IU/L | BUN [5]: 12 mg/dL | CRE [5]: 0.2 mg/dL | Ca [5]: 10.8 mg/dL | Cl [5]: 107 meq/L | DBIL [5]: 0.012 mg/dL | GLC [5]: 184.4 mg/dL | IP [5]: 10.2 mg/dL | K [5]: 4.5 meq/L | LDH [5]: 64.8 IU/L | Na [5]: 143.2 meq/L | PL [5]: 138.8 mg/dL | RALB [5]: 2.5 g/dL | TBIL [5]: 0.062 mg/dL | TC [5]: 77.4 mg/dL | TP [5]: 5.5 g/dL | gamma-GTP [5]: 1.2 IU/L | TERMINAL_BW [6]: 190.2 g | APTT [6]: 16.2 s | Bas [6]: 0% | Eos [6]: 0.8% | Fbg [6]: 293.4 mg/dL | Hb [6]: 13.1 g/dL | Ht [6]: 39.2% | Lym [6]: 79.4% | MCH [6]: 20.5 pg | MCHC [6]: 33.5% | MCV [6]: 61.1 fL | Mono [6]: 1.8% | Neu [6]: 17.8% | PT [6]: 14 s | Plat [6]: 117.6 x10_4/uL | RBC [6]: 642.6 x10_4/ul | Ret [6]: 8.1% | WBC [6]: 50.7 x10_2/uL | KIDNEY_L [6]: 0.8 g | KIDNEY_R [6]: 0.8 g | KIDNEY_TOTAL [6]: 1.7 g | LIVER [6]: 7.2 g | ALP [6]: 1219.4 IU/L | ALT [6]: 26.2 IU/L | AST [6]: 67.6 IU/L | BUN [6]: 13 mg/dL | CRE [6]: 0.2 mg/dL | Ca [6]: 10.7 mg/dL | Cl [6]: 106.6 meq/L | DBIL [6]: 0.014 mg/dL | GLC [6]: 185.2 mg/dL | IP [6]: 10.5 mg/dL | K [6]: 4.2 meq/L | LDH [6]: 57.8 IU/L | Na [6]: 142.6 meq/L | PL [6]: 136.6 mg/dL | RALB [6]: 2.6 g/dL | TBIL [6]: 0.066 mg/dL | TC [6]: 78.2 mg/dL | TP [6]: 5.4 g/dL | gamma-GTP [6]: 1.4 IU/L | TERMINAL_BW [7]: 187.2 g | APTT [7]: 16.8 s | Bas [7]: 0.2% | Eos [7]: 1.4% | Fbg [7]: 285.2 mg/dL | Hb [7]: 13.3 g/dL | Ht [7]: 39% | Lym [7]: 63.8% | MCH [7]: 21 pg | MCHC [7]: 34.1% | MCV [7]: 61.6 fL | Mono [7]: 2.8% | Neu [7]: 31.8% | PT [7]: 14.3 s | Plat [7]: 100.5 x10_4/uL | RBC [7]: 634 x10_4/ul | Ret [7]: 5% | WBC [7]: 18 x10_2/uL | KIDNEY_L [7]: 0.9 g | KIDNEY_R [7]: 0.9 g | KIDNEY_TOTAL [7]: 1.8 g | LIVER [7]: 7.4 g | ALP [7]: 1374 IU/L | ALT [7]: 27.8 IU/L | AST [7]: 67.8 IU/L | BUN [7]: 17 mg/dL | CRE [7]: 0.2 mg/dL | Ca [7]: 10.5 mg/dL | Cl [7]: 107 meq/L | DBIL [7]: 0.02 mg/dL | GLC [7]: 178.8 mg/dL | IP [7]: 9 mg/dL | K [7]: 4.6 meq/L | LDH [7]: 55.2 IU/L | Na [7]: 142 meq/L | PL [7]: 138.2 mg/dL | RALB [7]: 2.5 g/dL | TBIL [7]: 0.068 mg/dL | TC [7]: 86.2 mg/dL | TP [7]: 5.3 g/dL | gamma-GTP [7]: 1 IU/L
